SMILES strings stand for the structures.

For one experiment, the target named is T1, CBP (Homo sapiens, UniProt Q92793).
T1 construct: host or cells: A549 CBP HiBit cells
Kind of experiment: CBP degradation, HiBit technology in A549 CBP HiBit cells (24 h). Type of experiment: cell-based. Conditions: 24 hrs post treatment. Put shortly:
(§1)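 Degradation potency and Dmax came from luminescence after 10 min room-temperature lysis with HiBit detection buffer. Beforehand, HiBit-tagged A549 lines received serial compound dilutions (10 mM DMSO stocks) at 37 °C, 5% CO2. CBP cells were read at 24 h, p300 cells at 2 h.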
A general note: HiBiT is a short tag that completes a luciferase, so light tracks the accessible tagged protein.

Another experiment has as its target T2, p300 (Homo sapiens, UniProt Q09472).
T2 construct: host or cells: A549 P300 HiBit cells
Kind of experiment: P300 degradation, HiBit technology in A549 P300 HiBit cells (2 h). Type of experiment: cell-based. Particulars: 2 hrs post treatment; for Dmax: A549, A549 P300 HiBit cells; for DC50: A549 P300 HiBit cells. The method in brief: as §1

T1 sequence (Q92793 whole entry): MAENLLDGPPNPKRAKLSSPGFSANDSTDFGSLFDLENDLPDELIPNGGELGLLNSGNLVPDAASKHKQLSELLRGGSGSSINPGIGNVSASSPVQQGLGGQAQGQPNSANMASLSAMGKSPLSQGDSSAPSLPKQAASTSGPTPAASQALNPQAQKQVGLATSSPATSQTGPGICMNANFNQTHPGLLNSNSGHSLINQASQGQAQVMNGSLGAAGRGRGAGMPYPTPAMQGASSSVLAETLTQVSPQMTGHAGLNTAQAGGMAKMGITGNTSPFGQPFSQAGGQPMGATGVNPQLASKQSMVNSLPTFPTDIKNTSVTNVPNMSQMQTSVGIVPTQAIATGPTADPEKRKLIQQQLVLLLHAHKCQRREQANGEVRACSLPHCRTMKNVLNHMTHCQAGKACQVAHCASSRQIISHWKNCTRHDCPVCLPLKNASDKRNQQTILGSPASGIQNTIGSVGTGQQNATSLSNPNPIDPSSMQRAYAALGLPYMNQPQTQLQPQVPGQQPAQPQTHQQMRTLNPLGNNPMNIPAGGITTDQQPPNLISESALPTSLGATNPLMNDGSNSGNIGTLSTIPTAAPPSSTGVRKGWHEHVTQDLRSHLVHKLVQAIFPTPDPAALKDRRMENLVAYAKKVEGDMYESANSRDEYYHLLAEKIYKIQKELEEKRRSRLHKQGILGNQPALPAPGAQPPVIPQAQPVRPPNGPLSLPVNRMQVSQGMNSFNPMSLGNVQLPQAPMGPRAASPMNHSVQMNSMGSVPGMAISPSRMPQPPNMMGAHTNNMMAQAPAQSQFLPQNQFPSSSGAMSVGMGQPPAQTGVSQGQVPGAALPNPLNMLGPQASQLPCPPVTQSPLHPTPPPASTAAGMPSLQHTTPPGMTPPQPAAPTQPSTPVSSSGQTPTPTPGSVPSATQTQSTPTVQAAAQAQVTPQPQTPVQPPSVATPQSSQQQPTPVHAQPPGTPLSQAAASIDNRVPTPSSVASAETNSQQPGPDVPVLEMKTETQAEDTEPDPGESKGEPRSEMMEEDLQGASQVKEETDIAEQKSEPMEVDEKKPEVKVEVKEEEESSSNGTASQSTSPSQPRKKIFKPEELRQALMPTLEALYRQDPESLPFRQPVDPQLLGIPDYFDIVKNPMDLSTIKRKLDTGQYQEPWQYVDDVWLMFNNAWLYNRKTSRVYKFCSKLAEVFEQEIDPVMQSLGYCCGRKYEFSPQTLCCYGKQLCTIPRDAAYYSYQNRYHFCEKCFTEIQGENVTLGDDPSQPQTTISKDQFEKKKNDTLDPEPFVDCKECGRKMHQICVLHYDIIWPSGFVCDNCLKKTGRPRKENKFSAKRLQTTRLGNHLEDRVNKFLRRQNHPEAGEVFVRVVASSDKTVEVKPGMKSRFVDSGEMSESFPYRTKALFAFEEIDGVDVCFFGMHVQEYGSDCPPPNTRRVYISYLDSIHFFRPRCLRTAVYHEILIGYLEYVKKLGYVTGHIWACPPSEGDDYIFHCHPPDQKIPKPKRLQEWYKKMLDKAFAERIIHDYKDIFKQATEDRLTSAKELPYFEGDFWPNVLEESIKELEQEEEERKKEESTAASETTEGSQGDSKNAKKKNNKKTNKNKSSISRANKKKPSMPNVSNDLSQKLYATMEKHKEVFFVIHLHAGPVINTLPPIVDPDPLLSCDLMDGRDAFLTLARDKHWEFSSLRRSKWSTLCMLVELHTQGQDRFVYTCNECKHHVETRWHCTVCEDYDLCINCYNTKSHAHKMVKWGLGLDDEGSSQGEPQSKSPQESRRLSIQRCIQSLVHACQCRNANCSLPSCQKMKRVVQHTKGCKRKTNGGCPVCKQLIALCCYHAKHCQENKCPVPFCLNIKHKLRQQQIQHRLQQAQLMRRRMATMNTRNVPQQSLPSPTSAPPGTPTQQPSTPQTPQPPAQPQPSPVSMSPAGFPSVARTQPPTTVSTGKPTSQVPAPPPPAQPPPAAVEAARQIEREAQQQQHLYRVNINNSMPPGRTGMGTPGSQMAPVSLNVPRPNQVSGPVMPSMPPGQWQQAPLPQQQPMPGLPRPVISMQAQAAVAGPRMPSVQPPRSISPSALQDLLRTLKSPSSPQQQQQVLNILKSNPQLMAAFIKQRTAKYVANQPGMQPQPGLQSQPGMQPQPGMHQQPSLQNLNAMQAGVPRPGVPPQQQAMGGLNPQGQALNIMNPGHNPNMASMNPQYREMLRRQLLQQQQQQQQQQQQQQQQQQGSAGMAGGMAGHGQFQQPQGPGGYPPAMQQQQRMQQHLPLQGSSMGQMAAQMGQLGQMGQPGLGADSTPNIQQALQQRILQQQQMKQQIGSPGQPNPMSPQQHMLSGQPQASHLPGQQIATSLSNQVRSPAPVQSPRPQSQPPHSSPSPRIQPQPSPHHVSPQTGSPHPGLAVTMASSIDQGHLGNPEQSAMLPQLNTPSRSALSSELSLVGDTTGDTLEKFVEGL
T2 sequence (Q09472 whole entry): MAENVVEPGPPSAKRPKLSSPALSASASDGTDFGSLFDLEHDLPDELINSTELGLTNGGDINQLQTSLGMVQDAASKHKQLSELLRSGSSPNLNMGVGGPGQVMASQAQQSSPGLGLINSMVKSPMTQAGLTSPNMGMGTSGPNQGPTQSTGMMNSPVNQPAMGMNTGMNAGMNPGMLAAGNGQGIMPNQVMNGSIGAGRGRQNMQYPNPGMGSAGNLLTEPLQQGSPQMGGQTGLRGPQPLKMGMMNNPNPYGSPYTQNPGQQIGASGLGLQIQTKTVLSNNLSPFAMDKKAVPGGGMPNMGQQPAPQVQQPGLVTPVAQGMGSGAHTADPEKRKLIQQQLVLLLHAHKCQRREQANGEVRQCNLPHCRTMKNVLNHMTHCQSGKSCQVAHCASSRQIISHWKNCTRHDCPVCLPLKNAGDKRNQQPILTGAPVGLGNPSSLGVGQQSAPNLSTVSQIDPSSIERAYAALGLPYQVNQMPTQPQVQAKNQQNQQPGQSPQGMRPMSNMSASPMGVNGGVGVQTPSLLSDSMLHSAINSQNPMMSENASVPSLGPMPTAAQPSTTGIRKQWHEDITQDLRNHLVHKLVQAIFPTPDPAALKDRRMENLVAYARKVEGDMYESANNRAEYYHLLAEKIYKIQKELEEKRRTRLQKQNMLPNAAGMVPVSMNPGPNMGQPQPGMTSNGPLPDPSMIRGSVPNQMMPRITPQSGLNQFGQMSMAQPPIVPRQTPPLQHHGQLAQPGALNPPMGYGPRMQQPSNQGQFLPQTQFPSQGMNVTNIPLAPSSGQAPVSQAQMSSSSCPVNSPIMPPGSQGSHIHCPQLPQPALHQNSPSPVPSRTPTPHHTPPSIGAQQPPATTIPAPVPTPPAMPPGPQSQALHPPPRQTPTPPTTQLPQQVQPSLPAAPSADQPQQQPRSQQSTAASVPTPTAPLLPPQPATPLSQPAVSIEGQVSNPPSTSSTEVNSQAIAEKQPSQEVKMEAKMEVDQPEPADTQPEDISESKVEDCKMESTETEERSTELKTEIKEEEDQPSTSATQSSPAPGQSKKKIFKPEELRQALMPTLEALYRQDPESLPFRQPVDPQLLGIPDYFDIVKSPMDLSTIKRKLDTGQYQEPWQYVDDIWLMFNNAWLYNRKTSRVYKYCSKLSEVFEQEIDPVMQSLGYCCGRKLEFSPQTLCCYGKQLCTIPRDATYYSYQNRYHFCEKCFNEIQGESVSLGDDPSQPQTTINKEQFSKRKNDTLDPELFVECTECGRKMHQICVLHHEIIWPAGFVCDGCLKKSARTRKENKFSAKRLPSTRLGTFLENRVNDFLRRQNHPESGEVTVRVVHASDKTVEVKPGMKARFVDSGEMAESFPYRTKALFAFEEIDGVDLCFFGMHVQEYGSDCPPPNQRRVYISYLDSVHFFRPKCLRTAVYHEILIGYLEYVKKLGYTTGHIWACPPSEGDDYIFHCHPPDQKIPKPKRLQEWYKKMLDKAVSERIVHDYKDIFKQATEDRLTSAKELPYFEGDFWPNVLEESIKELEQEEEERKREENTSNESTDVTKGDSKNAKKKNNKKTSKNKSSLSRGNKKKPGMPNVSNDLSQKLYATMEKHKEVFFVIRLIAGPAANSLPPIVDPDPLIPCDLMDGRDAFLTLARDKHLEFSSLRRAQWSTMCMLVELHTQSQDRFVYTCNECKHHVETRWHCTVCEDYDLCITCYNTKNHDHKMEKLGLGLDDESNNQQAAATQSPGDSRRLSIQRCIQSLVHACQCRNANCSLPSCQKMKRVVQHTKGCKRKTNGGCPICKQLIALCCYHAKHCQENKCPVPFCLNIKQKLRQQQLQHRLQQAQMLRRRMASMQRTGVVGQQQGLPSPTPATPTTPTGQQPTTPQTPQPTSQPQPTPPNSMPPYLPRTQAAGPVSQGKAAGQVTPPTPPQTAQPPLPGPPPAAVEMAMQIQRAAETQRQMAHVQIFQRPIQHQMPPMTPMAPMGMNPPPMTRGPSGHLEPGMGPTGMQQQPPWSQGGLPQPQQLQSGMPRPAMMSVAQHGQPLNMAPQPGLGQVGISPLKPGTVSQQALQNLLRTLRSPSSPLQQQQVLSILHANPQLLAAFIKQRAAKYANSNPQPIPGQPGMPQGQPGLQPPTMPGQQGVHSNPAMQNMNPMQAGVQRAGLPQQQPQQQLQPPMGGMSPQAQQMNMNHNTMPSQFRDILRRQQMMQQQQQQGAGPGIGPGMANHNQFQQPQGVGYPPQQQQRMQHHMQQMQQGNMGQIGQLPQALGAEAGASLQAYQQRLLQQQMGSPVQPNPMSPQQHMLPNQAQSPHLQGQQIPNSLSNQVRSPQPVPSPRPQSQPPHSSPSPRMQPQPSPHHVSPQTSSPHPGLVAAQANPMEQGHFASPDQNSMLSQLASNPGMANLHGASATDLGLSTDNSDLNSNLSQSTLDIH

One may read the DC50 as the midpoint of the concentration-degradation curve. Read a low DC50 as degradation at low concentration. The term Dmax denotes the largest share of the target that was removed. At CBP, `Cn1c(=O)n(C)c2ncc(-c3cccc4cc(-c5ccc(C(=O)NCC#Cc6cc7c(C8CCC(=O)NC8=O)cccc7o6)nc5)ncc34)cc21` (stereo not drawn) [Example A162, 5-(8-(1,3-dimethyl-2-oxo-2,3-dihydro-1H-imidazo[4,5-b]pyridin-6-yl)isoquinolin-3-yl)-N-(3-(4-(2,6-dioxopiperidin-3-yl)benzofuran-2-yl)prop-2-yn-1-yl)picolinamide] yielded a DC50 of 100 to 999 nM and a Dmax below 20%. At p300, this compound gave a Dmax above 80% and a DC50 below 1 nM.

On CBP, `Cc1cc(-c2ncc3c(n2)CCCN3c2nc(N3CC4CCC(C3)O4)cc3c2cc(C)c(=O)n3C)cnc1C(=O)NCC#Cc1ccc2occ(C3CCC(=O)NC3=O)c2c1` (stereo not drawn) [Example B26, 5-(5-(7-(8-oxa-3-azabicyclo[3.2.1]octan-3-yl)-1,3-dimethyl-2-oxo-1,2-dihydro-1,6-naphthyridin-5-yl)-5,6,7,8-tetrahydropyrido [3,2-d]pyrimidin-2-yl)-N-(3-(3-(2,6-dioxopiperidin-3-yl)benzofuran-5-yl)prop-2-yn-1-yl)-3-methylpicolinamide] yielded a 50% degradation concentration (DC50) above 1000 nM and a Dmax below 20%. On p300, this compound returned a Dmax above 80% and a DC50 of 1 to 9.9 nM.

At CBP, `CCc1cc(N(C)c2ccc(-c3cnc(C(=O)NCC#Cc4cccc(NC5CCC(=O)NC5=O)c4)c(C)c3)nc2)c2cc(C)c(=O)n(C)c2c1` (stereo not drawn) [Example B16, N-(3-(3-((2,6-Dioxopiperidin-3-yl)amino)phenyl)prop-2-yn-1-yl)-5-((7-ethyl-1,3-dimethyl-2-oxo-1,2-dihydroquinolin-5-yl)(methyl)amino)-5′-methyl-[2,3′-bipyridine]-6′-carboxamide] gave a 50% degradation concentration (DC50) of 100 to 999 nM and a Dmax of 20 to 39%. On p300, this compound returned a Dmax above 80% and a DC50 of 1 to 9.9 nM.

`Cn1c(=O)n(C)c2c(N3CCC(O)CC3)nc(-c3cccc4cc(-c5ccc(C(=O)NCC#Cc6ccc7occ(C8CCC(=O)NC8=O)c7c6)nc5)ncc34)cc21` (stereo not drawn) [Example A124, N-(3-(3-(2,6-dioxo-piperidin-3-yl)benzofuran-5-yl)prop-2-yn-1-yl)-5-(8-(4-(4-hydroxypiperidin-1-yl)-1,3-dimethyl-2-oxo-2,3-dihydro-1H-imidazo[4,5-c]pyridin-6-yl)isoquinolin-3-yl)picolinamide]: on CBP, the DC50 is above 1000 nM and the maximal degradation (Dmax) is below 20%. On p300, this compound showed a Dmax above 80% and a DC50 below 1 nM.

`Cn1c(=O)n(C)c2cc(N3CCOc4nc(-c5ccc(C(=O)NCC#Cc6cc7cccc(C8CCC(=O)NC8=O)c7o6)nc5)ncc43)ccc21` (stereo not drawn) [Example A247, 5-(5-(1,3-dimethyl-2-oxo-2,3-dihydro-1H-benzo[d]imidazol-5-yl)-6,7-dihydro-5H-pyrimido[4,5-b][1,4]oxazin-2-yl)-N-(3-(7-(2,6-dioxopiperidin-3-yl)benzofuran-2-yl)prop-2-yn-1-yl) picolinamide]: the DC50 on CBP is above 1000 nM; at p300, 10 to 99 nM. Besides, the Dmax on CBP is below 20%; at p300, 20 to 39%.

Take `Cc1cc(N2CCOc3nc(-c4ccc(C(=O)NCC#Cc5ccc6occ(C7CCC(=O)NC7=O)c6c5)nc4)ncc32)cc2c1n(C)c(=O)n2C` (stereo not drawn) [Example A68, N-(3-(3-(2,6-dioxopiperidin-3-yl)benzofuran-5-yl)prop-2-yn-1-yl)-5-(5-(1,3,7-trimethyl-2-oxo-2,3-dihydro-1H-benzo[d]imidazol-5-yl)-6,7-dihydro-5H-pyrimido [4,5-b][1,4]oxazin-2-yl)picolinamide]: at CBP, the DC50 is above 1000 nM and the Dmax is below 20%. At p300, this compound came in with a Dmax above 80% and a DC50 of 1 to 9.9 nM.

With `CC(C)c1cc(-c2cccc3cc(-c4ccc(C(=O)NCC#Cc5cnc6c(c5)c(C5CCC(=O)NC5=O)cn6C)nc4)ncc23)cc2c1n(C)c(=O)n2C` (stereo not drawn) [Example A202, N-(3-(3-(2,6-dioxo-piperidin-3-yl)-1-methyl-1H-pyrrolo [2,3-b]pyridin-5-yl)prop-2-yn-1-yl)-5-(8-(7-isopropyl-1,3-dimethyl-2-oxo-2,3-dihydro-1H-benzo[d]imidazol-5-yl)isoquinolin-3-yl)picolinamide], at CBP, the DC50 is above 1000 nM and the Dmax is below 20%. At p300, this compound yielded a Dmax of 60 to 79% and a DC50 of 10 to 99 nM.

As to `Cc1cc2c(N3CCCc4cc(-c5ccc(C(=O)NCC#Cc6cc7c(C8CCC(=O)NC8=O)cccc7o6)nc5)ncc43)cc(C3CCOCC3)nc2n(C)c1=O` (stereo not drawn) [Example B169, 5-(1-(6,8-dimethyl-7-oxo-2-(tetrahydro-2H-pyran-4-yl)-7,8-dihydro-1,8-naphthyridin-4-yl)-1,2,3,4-tetrahydro-1,7-naphthyridin-6-yl)-N-(3-(4-(2,6-dioxopiperidin-3-yl)benzofuran-2-yl)prop-2-yn-1-yl)picolinamide], the DC50 was 1 to 9.9 nM on CBP and below 1 nM at p300. Moreover, the Dmax at CBP was 40 to 59%; at p300, above 80%.

`CC(C)c1cc(-c2cccc3cc(-c4ccc(C(=O)NCC#Cc5ccc6occ(C78CC(C7)C(=O)NC8=O)c6c5)nc4)ncc23)cc2c1n(C)c(=O)n2C` [Example A212, N-(3-(3-(2,4-dioxo-3-azabicyclo[3.1.1]heptan-1-yl)benzofuran-5-yl)prop-2-yn-1-yl)-5-(8-(7-isopropyl-1,3-dimethyl-2-oxo-2,3-dihydro-1H-benzo[d]imidazol-5-yl)isoquinolin-3-yl)picolinamide]: on CBP, the DC50 is above 1000 nM and the maximal degradation (Dmax) is below 20%. On p300, this compound gave a Dmax above 80% and a DC50 of 1 to 9.9 nM.

At CBP, `Cc1cc(-c2cc3cccc(-c4cnc5c(c4)n(C)c(=O)n5C)c3cn2)cnc1C(=O)NCC#Cc1cc2c(C3CCC(=O)NC3=O)cccc2o1` (stereo not drawn) [Example A189, 5-(8-(1,3-dimethyl-2-oxo-2,3-dihydro-1H-imidazo[4,5-b]pyridin-6-yl)isoquinolin-3-yl)-N-(3-(4-(2,6-dioxopiperidin-3-yl)benzofuran-2-yl)prop-2-yn-1-yl)-3-methylpicolinamide] showed a 50% degradation concentration (DC50) above 1000 nM and a Dmax below 20%. On p300, this compound gave a Dmax above 80% and a DC50 of 1 to 9.9 nM.

Turning to `CC(C)c1cc(N2CCCc3nc(-c4ccc(C(=O)NCC#Cc5cc6c(C7CCC(=O)NC7=O)cccc6o5)nc4)ncc32)cc2c1n(C)c(=O)n2C` (stereo not drawn) [Example A237, N-(3-(4-(2,6-dioxo-piperidin-3-yl)benzofuran-2-yl)prop-2-yn-1-yl)-5-(5-(7-isopropyl-1,3-dimethyl-2-oxo-2,3-dihydro-1H-benzo [d]imidazol-5-yl)-5,6,7,8-tetrahydro-pyrido[3,2-d]pyrimidin-2-yl)picolinamide], the half-maximal degradation concentration (DC50) was 100 to 999 nM at CBP and below 1 nM at p300. The Dmax at CBP was below 20%; at p300, above 80%.

For the compound `Cc1cc(-c2cc3cccc(-c4nc(N5CCOCC5)cc5c4cc(C)c(=O)n5C)c3cn2)cnc1C(=O)NCC#Cc1cc2c(C3CCC(=O)NC3=O)cccc2o1` (stereo not drawn) [Example B167, 5-(8-(1,3-dimethyl-7-morpholino-2-oxo-1,2-dihydro-1,6-naphthyridin-5-yl)isoquinolin-3-yl)-N-(3-(4-(2,6-dioxopiperidin-3-yl)benzofuran-2-yl)prop-2-yn-1-yl)-3-methylpicolinamide], the half-maximal degradation concentration (DC50) at CBP and at p300 was 1 to 9.9 nM throughout. Further, the results for the Dmax on CBP and at p300 were 60 to 79% and above 80%, respectively.

On to `Cc1cc2c(N3CCCc4nc(-c5ccc(C(=O)NCC#Cc6ccc7occ(C8CCC(=O)NC8=O)c7c6)nc5)ncc43)nc(N3CC4CCC(C3)O4)cc2n(C)c1=O` (stereo not drawn) [Example B115, 5-(5-(7-(8-oxa-3-azabicyclo[3.2.1]octan-3-yl)-1,3-dimethyl-2-oxo-1,2-dihydro-1,6-naphthyridin-5-yl)-5,6,7,8-tetrahydropyrido [3,2-d]pyrimidin-2-yl)-N-(3-(3-(2,6-dioxopiperidin-3-yl)benzofuran-5-yl)prop-2-yn-1-yl)picolinamide], for which, on CBP, the DC50 was above 1000 nM and the Dmax was below 20%. On p300, this compound yielded a Dmax of 60 to 79% and a DC50 of 1 to 9.9 nM.

In the case of `CC(C)c1cc(N2CCOc3cc(-c4ccc(C(=O)NCC#Cc5ccn6ncc(C7CCC(=O)NC7=O)c6c5)nc4)ncc32)cc2c1n(C)c(=O)n2C` (stereo not drawn) [Example A161, N-(3-(3-(2,6-dioxo-piperidin-3-yl)pyrazolo[1,5-a]pyridin-5-yl)prop-2-yn-1-yl)-5-(4-(7-isopropyl-1,3-dimethyl-2-oxo-2,3-dihydro-1H-benzo[d]imidazol-5-yl)-3,4-dihydro-2H-pyrido[4,3-b][1,4]oxazin-7-yl)picolinamide], at CBP, the DC50 lay in the range of 100 to 999 nM and the Dmax is below 20%. In addition, on p300, the Dmax is above 80% and the DC50 is below 1 nM.

Consider `Cc1cc(-c2ncc3c(n2)CCCN3c2cc(C3CCOCC3)nc3c2cc(C)c(=O)n3C)cnc1C(=O)NCC#Cc1cc2c(C3CCC(=O)NC3=O)cccc2o1` (stereo not drawn) [Example B103, 5-(5-(6,8-dimethyl-7-oxo-2-(tetrahydro-2H-pyran-4-yl)-7,8-dihydro-1,8-naphthyridin-4-yl)-5,6,7,8-tetrahydropyrido[3,2-d]pyrimidin-2-yl)-N-(3-(4-(2,6-dioxopiperidin-3-yl)benzofuran-2-yl)prop-2-yn-1-yl)-3-methylpicolinamide], for which, at CBP, the DC50 was 100 to 999 nM and the Dmax was below 20%. Also, at p300, the Dmax was above 80% and the DC50 lay in the range of 1 to 9.9 nM.

(Values after patent publication US20250114345A1, “COMPOUNDS AND COMPOSITIONS AS CBP/P300 DEGRADERS AND USES THEREOF” (Oncopia Therapeutics, Inc. d/b/a/ SK Life Science Labs, priority 2023, published 2025).)
